Test results as given in the supplement of paper PMC10307832.

Experiments:
Experiment in all cases: relative viability (nuclei count vs DMSO), 5 days (fraction); higher = more cells survive
[1] = compound: Cc1ccc(-n2nc(C(C)(C)C)cc2NC(=O)Nc2ccc(OCCN3CCOCC3)c3ccccc23)cc1 [Doramapimod] + CS(=O)(=O)CCNCc1ccc(-c2ccc3ncnc(Nc4ccc(OCc5cccc(F)c5)c(Cl)c4)c3c2)o1 [Lapatinib] (partner 2 µM)
Outline: (§1)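 Relative viability divides the nuclei count in treated wells by that in vehicle wells. Lung cancer cell lines were seeded in 1536-well plates, dosed by pin tool the next day, and fixed and stained after 5 days in one step with final 0.05% Triton X-100, 1% formaldehyde and 1 ug/ml Hoechst. Dosing was a single drug or a fixed anchor-drug dose plus five library-drug doses (not always all listed) in √10 steps, and values are medians of duplicate plates imaged at 4×.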

[2] = compound: Cc1ccc(-n2nc(C(C)(C)C)cc2NC(=O)Nc2ccc(OCCN3CCOCC3)c3ccccc23)cc1 [Doramapimod] + CC(=O)Nc1cccc(-n2c(=O)n(C3CC3)c(=O)c3c(Nc4ccc(I)cc4F)n(C)c(=O)c(C)c32)c1 [Trametinib] (partner 0.02 µM)
Outline: as §1

[3] = compound: C1=CC=C2C(=C1)C=CC(=C2SSC3=C(C=CC4=CC=CC=C43)O)O [IPA-3] + Cc1nc(NC(=O)N2CCC[C@H]2C(N)=O)sc1-c1ccnc(C(C)(C)C(F)(F)F)c1 [Alpelisib] (partner 2 µM)
Outline: as §1

[4] = compound: C1=CC=C2C(=C1)C=CC(=C2SSC3=C(C=CC4=CC=CC=C43)O)O [IPA-3] + O=C(c1cc(Cc2n[nH]c(=O)c3ccccc23)ccc1F)N1CCN(C(=O)C2CC2)CC1 [Olaparib] (partner 8 µM)
Outline: as §1

Cell Line | relative viability ([1]; first compound 0.02 µM) | relative viability ([1]; first compound 0.06325 µM) | relative viability ([1]; first compound 0.2 µM) | relative viability ([1]; first compound 0.6325 µM) | relative viability ([1]; first compound 2 µM) | relative viability ([2]; first compound 0.02 µM) | relative viability ([2]; first compound 0.06325 µM) | relative viability ([2]; first compound 0.2 µM) | relative viability ([2]; first compound 0.6325 µM) | relative viability ([2]; first compound 2 µM) | relative viability ([3]; first compound 0.2 µM) | relative viability ([3]; first compound 0.6325 µM) | relative viability ([3]; first compound 2 µM) | relative viability ([3]; first compound 6.325 µM) | relative viability ([3]; first compound 20 µM) | relative viability ([4]; first compound 0.2 µM) | relative viability ([4]; first compound 0.6325 µM) | relative viability ([4]; first compound 2 µM) | relative viability ([4]; first compound 6.325 µM) | relative viability ([4]; first compound 20 µM)
NCI-H2347 | 0.932 | 0.897 | 0.969 | 0.67 | 0.875 | 0.281 | 0.23 | 0.249 | 0.26 | 0.261 | 1.12 | 0.941 | 0.928 | 1.08 | 1.01 | 0.568 | 0.486 | 0.565 | 0.592 | 0.612
NCI-H2405 | 1.15 | 1.1 | 1.07 | 1.16 | 0.969 | 0.613 | 0.618 | 0.612 | 0.705 | 0.581 | 0.815 | 0.771 | 0.753 | 0.853 | 0.829 | 0.994 | 0.832 | 0.939 | 0.865 | 0.9
NCI-H3122 | 1.02 | 0.962 | 0.974 | 1.08 | 0.932 | 0.26 | 0.206 | 0.216 | 0.219 | 0.279 | 0.797 | 0.798 | 0.804 | 0.856 | 0.776 | 0.655 | 0.608 | 0.57 | 0.644 | 0.588
PC-3 [JPC-3] | 0.475 | 0.433 | 0.432 | 0.485 | 0.348 | 0.849 | 0.726 | 0.748 | 0.839 | 0.845 | 1.04 | 1.05 | 1.04 | 0.972 | 1.08 | 1.11 | 1.08 | 1.28 | 1.05 | 1.13
PC-14 | 0.292 | 0.322 | 0.346 | 0.425 | 0.319 | 0.756 | 0.864 | 0.782 | 0.856 | 0.619 | 1.15 | 0.885 | 1 | 0.88 | 1.1 | 0.286 | 0.29 | 0.335 | 0.222 | 0.134
RERF-LC-KJ | 0.983 | 0.946 | 0.879 | 0.908 | 0.814 | 0.969 | 0.881 | 0.901 | 0.984 | 0.885 | 0.933 | 0.807 | 0.83 | 0.668 | 0.928 | 0.92 | 0.942 | 0.982 | 0.771 | 0.424
SK-LU-1 | 0.975 | 0.947 | 0.971 | 0.806 | 0.762 | 0.469 | 0.593 | 0.588 | 0.624 | 0.555 | 1.49 | – | 0.974 | 0.859 | 0.739 | 0.536 | 0.456 | 0.494 | 0.389 | 0.466
SK-MES-1 | 0.455 | 0.453 | 0.389 | 0.451 | 0.376 | 0.55 | 0.56 | 0.477 | 0.519 | 0.483 | 1.17 | 0.88 | 0.868 | – | 0.951 | 0.763 | 0.694 | 0.652 | 0.498 | 0.241
SW 1573 | 0.982 | 0.939 | 0.897 | 1.04 | 1.2 | 0.524 | 0.429 | 0.451 | 0.452 | 0.514 | 0.891 | 0.777 | 0.8 | 0.726 | 0.988 | 0.665 | 0.403 | 0.404 | 0.403 | 0.0864
